Data reported in ChEMBL document CHEMBL5696442, “Discovery of type II inhibitors of TGFβ-activated kinase 1 (TAK1) and mitogen-activated protein kinase kinase kinase kinase 2 (MAP4K2)” (J Med Chem, 2015).
Active and inactive are the calls of the source. The rule behind the calls is not given here.

Experiments:
[1] = molecular target: Ribosomal protein S6 kinase alpha-3 (Homo sapiens) (UniProt P51812); assay: Inhibition of RSK2 Domain 2 K1 labeling site in human Huh-7 cells at 10 uM by KiNativ Profiling analysis relative to control; assay type: cell-based
[2] = molecular target: Microtubule-associated serine/threonine-protein kinase 3 (Homo sapiens) (UniProt O60307); assay: Inhibition of MAST3 Lys2 labeling site in human A-375 cells at 5 uM by KiNativ Profiling analysis relative to control; assay type: cell-based
Microtubule-associated serine/threonine-protein kinase 3 (Homo sapiens), sequence (O60307 whole entry): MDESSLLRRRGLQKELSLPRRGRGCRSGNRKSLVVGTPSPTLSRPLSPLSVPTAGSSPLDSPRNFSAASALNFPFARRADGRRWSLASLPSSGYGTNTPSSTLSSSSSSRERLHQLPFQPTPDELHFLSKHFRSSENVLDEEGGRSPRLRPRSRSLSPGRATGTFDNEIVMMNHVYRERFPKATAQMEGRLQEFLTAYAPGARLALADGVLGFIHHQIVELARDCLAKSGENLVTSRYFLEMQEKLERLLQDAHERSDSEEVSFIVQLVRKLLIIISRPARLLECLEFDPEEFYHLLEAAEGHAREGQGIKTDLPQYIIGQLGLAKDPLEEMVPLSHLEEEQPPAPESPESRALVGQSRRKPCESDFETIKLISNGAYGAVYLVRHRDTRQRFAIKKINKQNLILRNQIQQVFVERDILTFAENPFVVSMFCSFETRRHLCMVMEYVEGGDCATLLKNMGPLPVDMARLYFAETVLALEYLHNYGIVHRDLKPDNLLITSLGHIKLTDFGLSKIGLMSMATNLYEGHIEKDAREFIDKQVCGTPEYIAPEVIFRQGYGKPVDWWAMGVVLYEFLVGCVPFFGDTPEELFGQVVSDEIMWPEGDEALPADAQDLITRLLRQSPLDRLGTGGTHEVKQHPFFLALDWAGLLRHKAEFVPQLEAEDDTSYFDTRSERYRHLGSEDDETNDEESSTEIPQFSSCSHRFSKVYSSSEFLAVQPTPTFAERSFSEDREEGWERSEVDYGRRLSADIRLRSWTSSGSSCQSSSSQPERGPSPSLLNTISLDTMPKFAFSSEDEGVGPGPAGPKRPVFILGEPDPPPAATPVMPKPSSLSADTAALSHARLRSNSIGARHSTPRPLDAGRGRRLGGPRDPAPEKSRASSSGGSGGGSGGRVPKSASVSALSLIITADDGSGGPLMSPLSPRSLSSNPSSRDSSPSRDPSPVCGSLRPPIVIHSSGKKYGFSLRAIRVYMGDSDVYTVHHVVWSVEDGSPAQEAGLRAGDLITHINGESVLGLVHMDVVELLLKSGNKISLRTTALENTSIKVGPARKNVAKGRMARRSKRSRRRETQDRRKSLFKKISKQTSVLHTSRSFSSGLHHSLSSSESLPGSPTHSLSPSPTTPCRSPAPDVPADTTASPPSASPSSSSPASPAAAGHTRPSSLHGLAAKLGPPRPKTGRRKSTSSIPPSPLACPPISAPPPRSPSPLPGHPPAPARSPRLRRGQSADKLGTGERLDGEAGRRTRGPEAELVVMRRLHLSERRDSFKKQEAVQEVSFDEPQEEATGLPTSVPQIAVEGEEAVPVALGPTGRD

[3] = molecular target: Epidermal growth factor receptor (Homo sapiens) (UniProt P00533); assay: Inhibition of EGFR ACT labeling site harbouring ITDFGLAKLLGAEEK in human A-375 cells at 5 uM by KiNativ Profiling analysis relative to control; assay type: cell-based
[4] = molecular target: T1, Inhibitor of nuclear factor kappa-B kinase subunit alpha (Homo sapiens) (UniProt O15111); assay: Inhibition of IKKa Lys2 labeling site in human A-375 cells at 5 uM by KiNativ Profiling analysis relative to control; assay type: cell-based
T1 sequence (whole entry): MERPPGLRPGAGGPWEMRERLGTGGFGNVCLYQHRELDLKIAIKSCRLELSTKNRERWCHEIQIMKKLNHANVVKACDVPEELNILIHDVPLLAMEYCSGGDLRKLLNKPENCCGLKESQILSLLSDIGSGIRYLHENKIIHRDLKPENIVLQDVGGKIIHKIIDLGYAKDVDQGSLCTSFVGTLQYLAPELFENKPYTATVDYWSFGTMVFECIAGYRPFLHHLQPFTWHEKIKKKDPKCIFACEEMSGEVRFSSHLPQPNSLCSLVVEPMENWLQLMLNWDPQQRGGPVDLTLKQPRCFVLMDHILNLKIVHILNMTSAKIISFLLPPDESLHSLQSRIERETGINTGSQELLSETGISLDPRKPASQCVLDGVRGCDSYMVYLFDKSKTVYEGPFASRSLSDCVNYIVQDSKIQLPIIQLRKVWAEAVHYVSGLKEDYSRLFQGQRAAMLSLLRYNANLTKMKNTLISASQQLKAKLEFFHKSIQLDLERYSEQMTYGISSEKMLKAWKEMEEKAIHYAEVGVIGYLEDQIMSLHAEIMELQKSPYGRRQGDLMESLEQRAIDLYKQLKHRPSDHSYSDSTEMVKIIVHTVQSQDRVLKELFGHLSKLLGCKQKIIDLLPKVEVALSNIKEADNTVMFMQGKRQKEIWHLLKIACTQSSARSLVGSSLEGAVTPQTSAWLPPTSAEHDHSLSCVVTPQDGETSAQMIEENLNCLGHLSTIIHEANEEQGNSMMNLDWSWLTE

[5] = molecular target: Calcium/calmodulin-dependent protein kinase type IV (Homo sapiens) (UniProt Q16566); assay: Inhibition of CAMK4 (unknown origin) at 10 uM by Ambit Kinomescan binding assay
Calcium/calmodulin-dependent protein kinase type IV (Homo sapiens), sequence (Q16566 whole entry): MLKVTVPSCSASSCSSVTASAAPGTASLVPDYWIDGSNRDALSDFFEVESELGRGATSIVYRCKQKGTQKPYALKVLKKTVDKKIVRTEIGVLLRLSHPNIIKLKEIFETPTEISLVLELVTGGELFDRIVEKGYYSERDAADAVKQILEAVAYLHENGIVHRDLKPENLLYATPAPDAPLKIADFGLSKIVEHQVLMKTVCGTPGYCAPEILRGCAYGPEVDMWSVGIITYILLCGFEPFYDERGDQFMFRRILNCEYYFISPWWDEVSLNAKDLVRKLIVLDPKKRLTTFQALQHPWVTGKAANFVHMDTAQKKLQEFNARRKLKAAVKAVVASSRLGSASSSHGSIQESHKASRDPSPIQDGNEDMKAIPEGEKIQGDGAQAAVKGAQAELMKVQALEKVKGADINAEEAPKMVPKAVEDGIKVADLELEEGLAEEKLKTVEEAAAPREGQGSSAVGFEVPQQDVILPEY

[6] = molecular target: T2, Serine/threonine-protein kinase Nek1 (Homo sapiens) (UniProt Q96PY6); assay: Inhibition of NEK1 Lys2 labeling site in human A-375 cells at 5 uM by KiNativ Profiling analysis relative to control; assay type: cell-based
T2 sequence (whole entry): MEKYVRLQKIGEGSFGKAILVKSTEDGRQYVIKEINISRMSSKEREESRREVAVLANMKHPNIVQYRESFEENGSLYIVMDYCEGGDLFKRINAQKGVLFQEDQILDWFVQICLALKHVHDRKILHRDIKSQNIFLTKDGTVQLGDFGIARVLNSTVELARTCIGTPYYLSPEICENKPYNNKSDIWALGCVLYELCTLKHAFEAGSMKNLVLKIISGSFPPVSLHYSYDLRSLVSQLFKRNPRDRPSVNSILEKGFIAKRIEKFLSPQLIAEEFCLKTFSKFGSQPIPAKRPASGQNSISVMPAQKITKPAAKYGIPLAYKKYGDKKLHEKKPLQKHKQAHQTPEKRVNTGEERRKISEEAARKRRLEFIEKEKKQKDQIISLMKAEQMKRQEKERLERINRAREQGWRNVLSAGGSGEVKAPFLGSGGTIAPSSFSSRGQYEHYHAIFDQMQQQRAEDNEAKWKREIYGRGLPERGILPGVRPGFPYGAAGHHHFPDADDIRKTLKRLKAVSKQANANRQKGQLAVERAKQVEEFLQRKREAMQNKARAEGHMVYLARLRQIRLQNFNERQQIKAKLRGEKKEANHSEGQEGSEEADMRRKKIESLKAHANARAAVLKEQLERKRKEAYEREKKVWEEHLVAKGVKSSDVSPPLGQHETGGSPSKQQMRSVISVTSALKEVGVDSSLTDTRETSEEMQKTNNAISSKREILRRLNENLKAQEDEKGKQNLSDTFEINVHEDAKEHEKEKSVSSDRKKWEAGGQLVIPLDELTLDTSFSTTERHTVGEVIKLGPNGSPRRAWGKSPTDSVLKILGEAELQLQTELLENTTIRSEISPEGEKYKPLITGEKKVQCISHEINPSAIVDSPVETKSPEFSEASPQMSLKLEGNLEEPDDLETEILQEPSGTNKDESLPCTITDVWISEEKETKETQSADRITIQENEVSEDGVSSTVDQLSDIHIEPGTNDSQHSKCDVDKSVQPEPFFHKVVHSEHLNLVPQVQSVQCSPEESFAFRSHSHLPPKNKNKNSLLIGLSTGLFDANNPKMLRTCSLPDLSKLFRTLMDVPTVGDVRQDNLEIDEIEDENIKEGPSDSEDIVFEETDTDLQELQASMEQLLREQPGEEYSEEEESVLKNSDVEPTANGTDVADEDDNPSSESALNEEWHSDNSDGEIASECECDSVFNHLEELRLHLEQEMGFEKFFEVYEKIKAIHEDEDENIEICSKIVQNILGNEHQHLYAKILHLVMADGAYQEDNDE

[7] = molecular target: Interferon-induced, double-stranded RNA-activated protein kinase (Homo sapiens) (UniProt P19525); assay: Inhibition of PKR K2 labeling site in human Huh-7 cells at 1 uM by KiNativ Profiling analysis relative to control; assay type: cell-based
Interferon-induced, double-stranded RNA-activated protein kinase (Homo sapiens), sequence (P19525 whole entry): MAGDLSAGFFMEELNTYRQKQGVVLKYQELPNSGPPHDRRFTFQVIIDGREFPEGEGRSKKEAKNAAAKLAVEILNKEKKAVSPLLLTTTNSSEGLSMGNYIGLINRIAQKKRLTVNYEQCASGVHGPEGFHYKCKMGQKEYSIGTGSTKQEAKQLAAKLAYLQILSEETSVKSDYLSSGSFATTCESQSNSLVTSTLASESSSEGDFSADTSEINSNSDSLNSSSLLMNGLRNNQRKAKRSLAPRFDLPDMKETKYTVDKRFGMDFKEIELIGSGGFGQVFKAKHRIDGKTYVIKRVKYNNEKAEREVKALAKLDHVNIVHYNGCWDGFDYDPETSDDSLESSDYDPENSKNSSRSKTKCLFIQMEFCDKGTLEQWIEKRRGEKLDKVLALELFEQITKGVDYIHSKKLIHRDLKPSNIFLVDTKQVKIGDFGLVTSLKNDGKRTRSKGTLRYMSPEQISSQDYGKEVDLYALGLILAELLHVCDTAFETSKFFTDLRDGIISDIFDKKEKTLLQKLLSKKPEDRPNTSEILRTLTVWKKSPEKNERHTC

[8] = Inhibition of p70S6K Lys2 labeling site in human A-375 cells at 0.5 uM by KiNativ Profiling analysis relative to control; details: condition cancer
[9] = molecular target: Ephrin type-B receptor 6 (Homo sapiens) (UniProt O15197); assay: Inhibition of EPHB6 (unknown origin) at 1 uM by Ambit Kinomescan binding assay relative to control; values are per cent of control
Ephrin type-B receptor 6 (Homo sapiens), sequence (O15197 whole entry): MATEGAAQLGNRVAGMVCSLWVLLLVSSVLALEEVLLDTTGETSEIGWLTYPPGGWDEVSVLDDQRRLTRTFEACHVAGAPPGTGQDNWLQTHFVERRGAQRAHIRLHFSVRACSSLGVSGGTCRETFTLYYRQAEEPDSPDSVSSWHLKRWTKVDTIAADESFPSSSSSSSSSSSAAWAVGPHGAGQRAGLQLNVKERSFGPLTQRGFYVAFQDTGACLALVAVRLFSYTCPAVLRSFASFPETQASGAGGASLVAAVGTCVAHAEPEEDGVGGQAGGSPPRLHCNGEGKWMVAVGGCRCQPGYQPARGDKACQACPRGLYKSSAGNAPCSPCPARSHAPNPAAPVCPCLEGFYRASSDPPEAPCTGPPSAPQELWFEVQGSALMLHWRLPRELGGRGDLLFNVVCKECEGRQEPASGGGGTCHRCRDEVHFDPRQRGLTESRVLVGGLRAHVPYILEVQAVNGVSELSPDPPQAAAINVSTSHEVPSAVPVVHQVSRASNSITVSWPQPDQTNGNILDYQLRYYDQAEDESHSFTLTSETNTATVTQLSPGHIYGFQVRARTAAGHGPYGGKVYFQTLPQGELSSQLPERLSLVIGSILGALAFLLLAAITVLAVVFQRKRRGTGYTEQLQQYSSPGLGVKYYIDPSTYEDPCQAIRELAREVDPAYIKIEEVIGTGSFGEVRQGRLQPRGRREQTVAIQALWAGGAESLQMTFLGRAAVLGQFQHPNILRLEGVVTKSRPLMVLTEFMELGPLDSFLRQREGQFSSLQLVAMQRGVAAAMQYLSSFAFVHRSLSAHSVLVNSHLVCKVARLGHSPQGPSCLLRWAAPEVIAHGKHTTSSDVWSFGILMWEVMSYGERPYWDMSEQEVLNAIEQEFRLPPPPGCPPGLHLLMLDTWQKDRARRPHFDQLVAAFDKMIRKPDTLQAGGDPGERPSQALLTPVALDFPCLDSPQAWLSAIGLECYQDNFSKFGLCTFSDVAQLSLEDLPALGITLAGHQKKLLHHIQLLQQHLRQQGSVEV

[10] = molecular target: Putative phosphatidylinositol 4-kinase alpha-like protein P2 (Homo sapiens) (UniProt A4QPH2); assay: Inhibition of PI4KAP2 ATP labeling site in human A-375 cells at 0.05 uM by KiNativ Profiling analysis relative to control; assay type: cell-based
Putative phosphatidylinositol 4-kinase alpha-like protein P2 (Homo sapiens), sequence (A4QPH2 whole entry): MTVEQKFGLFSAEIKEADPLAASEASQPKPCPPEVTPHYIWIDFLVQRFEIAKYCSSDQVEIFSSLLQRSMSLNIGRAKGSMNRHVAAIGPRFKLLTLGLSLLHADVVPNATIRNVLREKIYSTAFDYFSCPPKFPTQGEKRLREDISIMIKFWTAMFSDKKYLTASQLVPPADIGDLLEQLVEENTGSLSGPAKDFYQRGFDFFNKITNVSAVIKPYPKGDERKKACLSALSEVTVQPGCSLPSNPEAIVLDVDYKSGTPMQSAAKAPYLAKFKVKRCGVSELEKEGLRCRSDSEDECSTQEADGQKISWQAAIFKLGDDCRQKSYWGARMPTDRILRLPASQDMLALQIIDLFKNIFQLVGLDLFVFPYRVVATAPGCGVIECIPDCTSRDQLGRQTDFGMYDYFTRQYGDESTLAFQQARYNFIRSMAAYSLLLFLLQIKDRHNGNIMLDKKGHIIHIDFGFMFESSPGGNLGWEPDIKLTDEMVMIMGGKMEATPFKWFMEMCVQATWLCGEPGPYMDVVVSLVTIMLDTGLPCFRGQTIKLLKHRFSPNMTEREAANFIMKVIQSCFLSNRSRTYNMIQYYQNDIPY

[11] = molecular target: Cyclin-dependent kinase 18 (Homo sapiens) (UniProt Q07002); assay: Inhibition of PCTAIRE3 Lys1 labeling site in human Huh-7 cells at 1 uM by KiNativ Profiling analysis relative to control; assay type: cell-based
Cyclin-dependent kinase 18 (Homo sapiens), sequence (Q07002 whole entry): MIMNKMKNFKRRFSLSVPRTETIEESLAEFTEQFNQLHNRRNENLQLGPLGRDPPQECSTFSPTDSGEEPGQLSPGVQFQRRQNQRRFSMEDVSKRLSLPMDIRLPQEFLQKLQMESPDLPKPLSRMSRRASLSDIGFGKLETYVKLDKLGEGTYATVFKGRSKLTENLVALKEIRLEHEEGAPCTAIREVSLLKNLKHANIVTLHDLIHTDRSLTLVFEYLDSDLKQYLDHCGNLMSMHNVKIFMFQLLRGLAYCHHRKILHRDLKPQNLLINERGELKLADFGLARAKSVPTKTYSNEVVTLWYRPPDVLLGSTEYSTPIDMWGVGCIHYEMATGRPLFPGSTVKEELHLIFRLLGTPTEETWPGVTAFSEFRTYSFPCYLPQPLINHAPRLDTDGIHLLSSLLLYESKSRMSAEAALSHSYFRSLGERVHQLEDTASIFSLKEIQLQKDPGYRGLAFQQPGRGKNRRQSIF

[12] = Inhibition of KHS1 Lys1 labeling site in human Huh-7 cell lysate at 1 uM by KiNativ Profiling analysis relative to control; details: condition cancer

For `CCN1CCN(Cc2ccc(NC(=O)c3ccc(C)c(Oc4ccnc5[nH]ccc45)c3)cc2C(F)(F)F)CC1`, which inhibition [1] is on record?
Its inhibition is “inactive”.

And the inhibition [2]?
The inhibition was 4.8%.

What about the inhibition [3] of the same compound?
Its inhibition is 5.4%.

And the inhibition [4]?
Its inhibition is 72.4%.

And the inhibition [5]?
The inhibition was “inactive”.

And the inhibition [6]?
The inhibition was -7.1%.

And the inhibition [7]?
Its inhibition is 4%.

What does the source list for `CCN1CCN(Cc2ccc(NC(=O)c3ccc(C)c(/C=C/c4cnc5[nH]ccc5c4OC)c3)cc2C(F)(F)F)CC1`?
inhibition at 0.5 µM [8]: -32.9%; residual activity [9]: 2.8%; inhibition [10]: 0.8%

Which inhibition [11] does the source give for `CNc1cc(Oc2cc(C(=O)Nc3cc(N4CCN(C)CC4)cc(C(F)(F)F)c3)ccc2C)ncn1` here?
The inhibition was 12%.

And the inhibition at 1 µM [12]?
The inhibition at 1 µM was -10.2%.
